Laboratory results taken from patent publication US20150204846A1, “PHOSPHATIDYLINOSITOL-3-KINASE C2 BETA MODULATORS AND METHODS OF USE THEREOF” (NEW YORK UNIVERSITY, priority 2012, published 2015).
“Also recorded” adds a separate entry of the source.

Test system: KCa3.1
Assay: Whole cell patch clamp of FcεR1 stimulated KCa3.1 channel activity in BMMCs
Type: cell-based, mouse
Conditions: for rescue of FcεR1 stimulated KCa3.1 channel activity: TRIM27+/+ BMMC transfected with siRNA to PI3KC2β, phosphoinositide added to the pipette solution (PI3P 100 nM)
Procedure: Whole cell patch clamping was performed on TRIM27^+/+ and TRIM27^−/− BMMCs that were first sensitized overnight with anti-DNP IgE and then stimulated with DNP-HSA using conditions previously described (5). Briefly, the standard pipette solution contained 140 mM KCl, 2 mM MgCl2, 10 mM Hepes, 2 mM Na^+-ATP and 0.1 mM GTP, pH 7.3. The standard external solution contained 140 mM NaCl, 5 mM KCl, 2 mM CaCl2, 1 mM MgCl2 and 10 mM Hepes, pH 7.3. Whole-cell currents were recorded using an Axoclamp 200 B amplifier (Axon Instruments, Foster City, Calif., USA), and currents were evoked by applying voltage commands to a range of potentials in 10 mV steps from a holding potential of 20 mV. For measuring the membrane potential, ruptured patch was used in current clamp mode as described in (34).
To verify that PI3KC2β mediated activation of KCa3.1 via the generation of PI3P, PI3P (100 nM) was added into the pipette solution during patch clamping in BMMCs in which PI3KC2β was knocked down using siRNA (32). PI(3)P diC16 [C41H45Na3O16P2 (C6)] was purchased from Echelon Biosciences and used according to specifications at a concentration of 100 nM in the pipette solution.

CCCCCCCCCCCCCCCC(=O)OC[C@H](COP(=O)(O)O[C@@H]1[C@H](O)[C@H](OP(=O)(O)O)[C@@H](O)[C@H](O)[C@H]1O)OC(=O)CCCCCCCCCCCCCCC [PI3P, phosphatidylinositol 3 phosphate]
rescue of FcεR1 stimulated KCa3.1 channel activity: restored
rescue of KCa3.1 channel activity (TRIM27-/- BMMC transfected with siRNA to PI3KC2β, PI3P added to the pipette solution): rescue

PI4P
rescue of FcεR1 stimulated KCa3.1 channel activity: failed to rescue
rescue of FcεR1 stimulated KCa3.1 channel activity (listed as PI(4)P): failure

PI(3,4,5)P3
rescue of FcεR1 stimulated KCa3.1 channel activity: failed to rescue; also recorded: failure
